For data set [1], the system named is broad-leaf weeds. The data set is described as follows: Post-emergence herbicidal activity test, broad-leaf weeds as a group. The conditions noted are these: 10 a.i.g/mu. Type of data set: in vivo. How it is done:
The weeds were cultivated in a 180 mm×140 mm plastic nutrient pot by a pot-culture method, placed in an enamel tray, and the plastic nutrient pots were filled with surface soil (⅘ of a depth) collected from a farmland and air-dried and sieved, and a soil humidity was controlled at 20% in the initial stage. Weed seeds with plump and uniform grains were selected, soaked in warm water at 25° C. for 6 h, and germinated in a biochemical incubator (dark) at 28° C. The freshly exposed weed seeds were evenly placed on the soil surface, and then covered with 0.5 cm to 1 cm of soil according to the size of the seeds. The weeds are cultivated in a controlled sunlight greenhouse at 20° C. to 30° C., under natural light, and a relative humidity of 57% to 72%. […]
2 weeks after sowing, the test plants were treated at the 2- to 3-leaf stage: the compounds of the present disclosure for testing were dissolved in acetone separately, and added with Tween 80, an emulsifiable oil of 1.5 liters/ha methyl oleate was added as a synergist, and an obtained mixture was diluted with certain water to a certain concentration solution. […] After spraying, the weeds were cultivated in the greenhouse for 3 weeks, and the experimental effects on the weeds were counted. […]

The test system of data set [2] is Abutilon theophrasti. The data set is described as follows: Post-emergence herbicidal activity test (stem and leaf spray, pot culture). Type of data set: in vivo. The conditions noted are these: 3 weeks after spraying. The gist of the method:
(§1)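 Seeds soaked 6 h at 25 °C, germinated at 28 °C, sown in loam pots and thinned to 10 plants/pot. At 2–3 leaves, plants received a single spray-tower application of 10, 5 or 2.5 g/mu. Fresh-weight control was graded 0–5 after 3 weeks.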

Data set [3] concerns Amaranthus retroflexus. Described as above. The settings on record: 3 weeks after spraying. Type of data set: in vivo. Put shortly: as §1
Data set [4] deals with Echinochloa crusgalli. Described as above. The conditions noted are these: 3 weeks after spraying. The class given is in vivo. The gist of the method:
as §1

Data set [5] concerns Portulaca oleracea. The description is as above. The class given is in vivo. The conditions noted are these: 3 weeks after spraying. Put shortly: as §1
Data set [6] concerns Setaria viridis. The data set is described as above. Type of data set: in vivo. The settings on record: 3 weeks after spraying. The gist of the method:
as §1

In data set [7] the test system is Trifoliumre pensL. The data set is described as follows: Post-emergence herbicidal activity test (stem and leaf spray, pot culture). The settings on record: 3 weeks after spraying. Type of data set: in vivo. Put shortly: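 Pot-grown weeds in loam (pH 7), greenhouse at 20–30 °C, sprayed once post-emergence at the 2–3-leaf stage. Compound in acetone with Tween 80 plus methyl oleate oil (1.5 L/ha), applied at 10, 5 and 2.5 g/mu by spray tower. Effect scored 3 weeks after spraying, averaged over three repeats.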

In the case of `C#CCN1C(=O)COc2cc(F)c(N3C(=O)C4=C(CCCC4)C3=O)cc21` [flumioxazin], the “control effect against broad-leaf weeds” value in data set [1] is 100%.

A word on the melting point: it is the temperature, or range, at which the solid turns liquid. The compound `Cc1ccccc1-c1nnc(COc2cc(N3C(=O)C4=C(CCCC4)C3=O)c(F)cc2Cl)o1` [Compound B9, 2-(4-chloro-2-fluoro-5-((5-(2-tolyl)-1,3,4-oxadiazole-2-yl)methoxy)phenyl)-4,5,6,7-tetrahydro-1H-isoindole-1,3(2H)-dione] returned a melting point of 144 to 147 °C. Further, the “Post-emergence herbicidal activity, A. theophrasti (grade)” value in data set [2] (dosage 2.5 g/mu) was 5 (Grade 5: the growth control rate is greater than or equal to 85%). Also, the “Post-emergence herbicidal activity, A. theophrasti (grade)” value in data set [2] (dosage 5 g/mu) is listed as 5 (Grade 5: the growth control rate is greater than or equal to 85%). Also, in data set [2] (dosage 10 g/mu), the “Post-emergence herbicidal activity, A. theophrasti (grade)” value is 5 (Grade 5: the growth control rate is greater than or equal to 85%). Also, the “Post-emergence herbicidal activity, A. retroflexus (grade)” value in data set [3] (dosage 2.5 g/mu) was 5 (Grade 5: the growth control rate is greater than or equal to 85%). Also, the “Post-emergence herbicidal activity, A. retroflexus (grade)” value in data set [3] (dosage 5 g/mu) is reported as 5 (Grade 5: the growth control rate is greater than or equal to 85%). Besides, in data set [3] (dosage 10 g/mu), the “Post-emergence herbicidal activity, A. retroflexus (grade)” value is reported as 5 (Grade 5: the growth control rate is greater than or equal to 85%). For the same compound, in data set [4] (dosage 2.5 g/mu), the “Post-emergence herbicidal activity, E. crusgalli (grade)” value is 1 (Grade 1: the growth control rate is greater than or equal to 5% and less than 20%). In data set [4] (dosage 5 g/mu), the “Post-emergence herbicidal activity, E. crusgalli (grade)” value is 2 (Grade 2: the growth control rate is greater than or equal to 20% and less than 40%). The “Post-emergence herbicidal activity, E. crusgalli (grade)” value in data set [4] (dosage 10 g/mu) is 3 (Grade 3: the growth control rate is greater than or equal to 40% and less than 60%). Moreover, in data set [5] (dosage 2.5 g/mu), the “Post-emergence herbicidal activity, P. oleracea (grade)” value is 5 (Grade 5: the growth control rate is greater than or equal to 85%). The “Post-emergence herbicidal activity, P. oleracea (grade)” value in data set [5] (dosage 5 g/mu) is on record as 5 (Grade 5: the growth control rate is greater than or equal to 85%). The “Post-emergence herbicidal activity, P. oleracea (grade)” value in data set [5] (dosage 10 g/mu) was 5 (Grade 5: the growth control rate is greater than or equal to 85%). Also, the “Post-emergence herbicidal activity, S. viridis (grade)” value in data set [6] (dosage 2.5 g/mu) was 2 (Grade 2: the growth control rate is greater than or equal to 20% and less than 40%). Further, the “Post-emergence herbicidal activity, S. viridis (grade)” value in data set [6] (dosage 5 g/mu) is 3 (Grade 3: the growth control rate is greater than or equal to 40% and less than 60%). Also, the “Post-emergence herbicidal activity, S. viridis (grade)” value in data set [6] (dosage 10 g/mu) was 4 (Grade 4: the growth control rate is greater than or equal to 60% and less than 85%). The “Post-emergence herbicidal activity, Trifoliumre pensL. (grade)” value in data set [7] (dosage 2.5 g/mu) is 5 (Grade 5: the growth control rate is greater than or equal to 85%). Moreover, in data set [7] (dosage 5 g/mu), the “Post-emergence herbicidal activity, Trifoliumre pensL. (grade)” value is given as 5 (Grade 5: the growth control rate is greater than or equal to 85%). Further, the “Post-emergence herbicidal activity, Trifoliumre pensL. (grade)” value in data set [7] (dosage 10 g/mu) is on record as 5 (Grade 5: the growth control rate is greater than or equal to 85%).

`O=C(COc1cc(N2C(=O)C3=C(CCCC3)C2=O)c(F)cc1Cl)c1ccccc1` [Compound C1, 2-(4-chloro-2-fluoro-5-(2-oxo-2-phenylethoxy)phenyl)-4,5,6,7-tetrahydro-1H-isoindole-1,3(2H)-dione]: the melting point is 124 to 131 °C. The “Post-emergence herbicidal activity, A. theophrasti (grade)” value in data set [2] (dosage 2.5 g/mu) is reported as 5 (Grade 5: the growth control rate is greater than or equal to 85%). In data set [2] (dosage 5 g/mu), the “Post-emergence herbicidal activity, A. theophrasti (grade)” value is 5 (Grade 5: the growth control rate is greater than or equal to 85%). Besides, the “Post-emergence herbicidal activity, A. theophrasti (grade)” value in data set [2] (dosage 10 g/mu) was 5 (Grade 5: the growth control rate is greater than or equal to 85%). Moreover, the “Post-emergence herbicidal activity, A. retroflexus (grade)” value in data set [3] (dosage 2.5 g/mu) is 5 (Grade 5: the growth control rate is greater than or equal to 85%). For the same compound, the “Post-emergence herbicidal activity, A. retroflexus (grade)” value in data set [3] (dosage 5 g/mu) is 5 (Grade 5: the growth control rate is greater than or equal to 85%). Further, in data set [3] (dosage 10 g/mu), the “Post-emergence herbicidal activity, A. retroflexus (grade)” value is recorded as 5 (Grade 5: the growth control rate is greater than or equal to 85%). Also, the “Post-emergence herbicidal activity, E. crusgalli (grade)” value in data set [4] (dosage 2.5 g/mu) was 1 (Grade 1: the growth control rate is greater than or equal to 5% and less than 20%). Besides, the “Post-emergence herbicidal activity, E. crusgalli (grade)” value in data set [4] (dosage 5 g/mu) was 2 (Grade 2: the growth control rate is greater than or equal to 20% and less than 40%). Besides, the “Post-emergence herbicidal activity, E. crusgalli (grade)” value in data set [4] (dosage 10 g/mu) is 3 (Grade 3: the growth control rate is greater than or equal to 40% and less than 60%). Besides, the “Post-emergence herbicidal activity, P. oleracea (grade)” value in data set [5] (dosage 2.5 g/mu) is 5 (Grade 5: the growth control rate is greater than or equal to 85%). Moreover, in data set [5] (dosage 5 g/mu), the “Post-emergence herbicidal activity, P. oleracea (grade)” value is reported as 5 (Grade 5: the growth control rate is greater than or equal to 85%). For the same compound, the “Post-emergence herbicidal activity, P. oleracea (grade)” value in data set [5] (dosage 10 g/mu) is listed as 5 (Grade 5: the growth control rate is greater than or equal to 85%). In data set [6] (dosage 2.5 g/mu), the “Post-emergence herbicidal activity, S. viridis (grade)” value is 2 (Grade 2: the growth control rate is greater than or equal to 20% and less than 40%). The “Post-emergence herbicidal activity, S. viridis (grade)” value in data set [6] (dosage 5 g/mu) is 3 (Grade 3: the growth control rate is greater than or equal to 40% and less than 60%). Moreover, in data set [6] (dosage 10 g/mu), the “Post-emergence herbicidal activity, S. viridis (grade)” value is 4 (Grade 4: the growth control rate is greater than or equal to 60% and less than 85%). Also, in data set [7] (dosage 2.5 g/mu), the “Post-emergence herbicidal activity, Trifoliumre pensL. (grade)” value is listed as 5 (Grade 5: the growth control rate is greater than or equal to 85%). For the same compound, the “Post-emergence herbicidal activity, Trifoliumre pensL. (grade)” value in data set [7] (dosage 5 g/mu) is recorded as 5 (Grade 5: the growth control rate is greater than or equal to 85%). Moreover, the “Post-emergence herbicidal activity, Trifoliumre pensL. (grade)” value in data set [7] (dosage 10 g/mu) is 5 (Grade 5: the growth control rate is greater than or equal to 85%).

The record behind these values is US20240300932A1, “N-PHENYLIMINE DERIVATIVE AND PREPARATION METHOD AND USE THEREOF” (Guizhou University, priority 2023, published 2024).
